Data taken from the supplement of paper PMC10307832.

How the values were obtained:
Assay in all cases: relative viability (nuclei count vs DMSO), 5 days (fraction); higher = more cells survive
NCI-H1792 = system: NCI-H1792
How it was run: (§1)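 Relative viability was taken as the ratio of nuclei in treated wells to nuclei in vehicle wells. Lung cancer cell lines in 1536-well plates received compounds by pin tool one day after seeding, either one drug alone or a fixed anchor-drug dose plus five library-drug doses (not always all listed) in √10 steps. Nuclei were counted on 4× images after 5 days of treatment, and values are medians of duplicate plates.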

NCI-H2085 = system: NCI-H2085
How it was run: as §1

LU99A = system: LU99A
How it was run: as §1

SK-LU-1 = system: SK-LU-1
How it was run: as §1

LC-2-ad = system: LC-2-ad
How it was run: as §1

NCI-H2170 = system: NCI-H2170
How it was run: as §1

SW 900 = system: SW 900
How it was run: as §1

UMC-11 = system: UMC-11
How it was run: as §1

HCC-78 = system: HCC-78
How it was run: as §1

NCI-H1975 = system: NCI-H1975
How it was run: as §1

LCLC-97TM1 = system: LCLC-97TM1
How it was run: as §1

NCI-H1915 = system: NCI-H1915
How it was run: as §1

EPLC-272H = system: EPLC-272H
How it was run: as §1

HCC-366 = system: HCC-366
How it was run: as §1

COR-L 105 = system: COR-L 105
How it was run: as §1

A-427 = system: A-427
How it was run: as §1

NCI-H1944 = system: NCI-H1944
How it was run: as §1

NCI-H1793 = system: NCI-H1793
How it was run: as §1

NCI-H358 = system: NCI-H358
How it was run: as §1

HOP-62 = system: HOP-62
How it was run: as §1

LXF-289 = system: LXF-289
How it was run: as §1

NCI-H460 = system: NCI-H460
How it was run: as §1

NCI-H1755 = system: NCI-H1755
How it was run: as §1

`O=C(O)c1ccc(-c2c[nH]c3ncc(-c4ccccc4)cc23)cc1C1CCCC1` + Nc1nc2[nH]cc(CCc3ccc(C(=O)N[C@@H](CCC(=O)O)C(=O)O)cc3)c2c(=O)[nH]1 [Pemetrexed] (partner 0.2 µM) showed a relative viability (NCI-H1792; first compound 0.04 µM) of 0.713, a relative viability (NCI-H1792; first compound 0.1265 µM) of 0.968 and a relative viability (NCI-H1792; first compound 0.4 µM) of 1.05. It also gave a relative viability (NCI-H1792; first compound 1.265 µM) of 0.734, a relative viability (NCI-H2085; first compound 0.04 µM) of 0.821 and a relative viability (NCI-H2085; first compound 0.1265 µM) of 0.951. The relative viability (NCI-H2085; first compound 0.4 µM) was 0.882, the relative viability (NCI-H2085; first compound 1.265 µM) was 0.654 and the relative viability (LU99A; first compound 0.04 µM) was 0.166. For the same compound, the relative viability (LU99A; first compound 0.1265 µM) was 0.192, the relative viability (LU99A; first compound 0.4 µM) was 0.187 and the relative viability (LU99A; first compound 1.265 µM) was 0.202. It also gave a relative viability (SK-LU-1; first compound 0.04 µM) of 0.909, a relative viability (SK-LU-1; first compound 0.1265 µM) of 0.987 and a relative viability (SK-LU-1; first compound 0.4 µM) of 0.882. The relative viability (SK-LU-1; first compound 1.265 µM) was 0.548, the relative viability (LC-2-ad; first compound 0.04 µM) was 0.302 and the relative viability (LC-2-ad; first compound 0.1265 µM) was 0.272. The relative viability (LC-2-ad; first compound 0.4 µM) was 0.278, the relative viability (LC-2-ad; first compound 1.265 µM) was 0.261 and the relative viability (NCI-H2170; first compound 0.04 µM) was 0.265. It also gave a relative viability (NCI-H2170; first compound 0.1265 µM) of 0.263, a relative viability (NCI-H2170; first compound 0.4 µM) of 0.247 and a relative viability (NCI-H2170; first compound 1.265 µM) of 0.282. For the same compound, the relative viability (SW 900; first compound 0.04 µM) was 0.476, the relative viability (SW 900; first compound 0.1265 µM) was 0.471 and the relative viability (SW 900; first compound 0.4 µM) was 0.451. It also gave a relative viability (SW 900; first compound 1.265 µM) of 0.473, a relative viability (UMC-11; first compound 0.04 µM) of 0.703 and a relative viability (UMC-11; first compound 0.1265 µM) of 0.719. It also gave a relative viability (UMC-11; first compound 0.4 µM) of 0.693, a relative viability (UMC-11; first compound 1.265 µM) of 0.653 and a relative viability (HCC-78; first compound 0.1265 µM) of 0.919. For the same compound, the relative viability (HCC-78; first compound 0.4 µM) was 0.881, the relative viability (HCC-78; first compound 1.265 µM) was 0.962 and the relative viability (NCI-H1975; first compound 0.04 µM) was 0.301. For the same compound, the relative viability (NCI-H1975; first compound 0.1265 µM) was 0.298, the relative viability (NCI-H1975; first compound 0.4 µM) was 0.284 and the relative viability (NCI-H1975; first compound 1.265 µM) was 0.28. For the same compound, the relative viability (LCLC-97TM1; first compound 0.04 µM) was 0.196, the relative viability (LCLC-97TM1; first compound 0.1265 µM) was 0.204 and the relative viability (LCLC-97TM1; first compound 0.4 µM) was 0.157. For the same compound, the relative viability (LCLC-97TM1; first compound 1.265 µM) was 0.153, the relative viability (NCI-H1915; first compound 0.04 µM) was 0.493 and the relative viability (NCI-H1915; first compound 0.1265 µM) was 0.454. The relative viability (NCI-H1915; first compound 0.4 µM) was 0.481, the relative viability (NCI-H1915; first compound 1.265 µM) was 0.448 and the relative viability (EPLC-272H; first compound 0.04 µM) was 0.369. It also gave a relative viability (EPLC-272H; first compound 0.1265 µM) of 0.336, a relative viability (EPLC-272H; first compound 0.4 µM) of 0.279 and a relative viability (EPLC-272H; first compound 1.265 µM) of 0.251. For the same compound, the relative viability (HCC-366; first compound 0.04 µM) was 0.178, the relative viability (HCC-366; first compound 0.1265 µM) was 0.203 and the relative viability (HCC-366; first compound 0.4 µM) was 0.149. The relative viability (HCC-366; first compound 1.265 µM) was 0.187, the relative viability (COR-L 105; first compound 0.04 µM) was 1.06 and the relative viability (COR-L 105; first compound 0.1265 µM) was 1.19. For the same compound, the relative viability (COR-L 105; first compound 0.4 µM) was 1.19, the relative viability (COR-L 105; first compound 1.265 µM) was 1.08 and the relative viability (A-427; first compound 0.04 µM) was 0.959. For the same compound, the relative viability (A-427; first compound 0.1265 µM) was 1.06, the relative viability (A-427; first compound 0.4 µM) was 0.943 and the relative viability (A-427; first compound 1.265 µM) was 0.843. The relative viability (NCI-H1944; first compound 0.04 µM) was 0.692, the relative viability (NCI-H1944; first compound 0.1265 µM) was 0.799 and the relative viability (NCI-H1944; first compound 0.4 µM) was 0.69. It also gave a relative viability (NCI-H1944; first compound 1.265 µM) of 0.565, a relative viability (NCI-H1793; first compound 0.04 µM) of 0.83 and a relative viability (NCI-H1793; first compound 0.1265 µM) of 1.19. The relative viability (NCI-H1793; first compound 0.4 µM) was 0.865, the relative viability (NCI-H1793; first compound 1.265 µM) was 0.882 and the relative viability (NCI-H358; first compound 0.04 µM) was 0.17. The relative viability (NCI-H358; first compound 0.1265 µM) was 0.186, the relative viability (NCI-H358; first compound 0.4 µM) was 0.181 and the relative viability (NCI-H358; first compound 1.265 µM) was 0.148. The relative viability (HOP-62; first compound 0.04 µM) was 0.327, the relative viability (HOP-62; first compound 0.1265 µM) was 0.389 and the relative viability (HOP-62; first compound 0.4 µM) was 0.307. For the same compound, the relative viability (HOP-62; first compound 1.265 µM) was 0.351, the relative viability (LXF-289; first compound 0.04 µM) was 0.912 and the relative viability (LXF-289; first compound 0.1265 µM) was 0.905. It also gave a relative viability (LXF-289; first compound 0.4 µM) of 0.786, a relative viability (LXF-289; first compound 1.265 µM) of 0.627 and a relative viability (NCI-H460; first compound 0.04 µM) of 0.0611. It also gave a relative viability (NCI-H460; first compound 0.1265 µM) of 0.0579, a relative viability (NCI-H460; first compound 0.4 µM) of 0.0617 and a relative viability (NCI-H460; first compound 1.265 µM) of 0.0609. The relative viability (NCI-H1755; first compound 0.04 µM) was 0.412, the relative viability (NCI-H1755; first compound 0.1265 µM) was 0.449 and the relative viability (NCI-H1755; first compound 0.4 µM) was 0.405. For the same compound, the relative viability (NCI-H1755; first compound 1.265 µM) was 0.436.
